One compound from PMC3706879, “The neurotrophic compound J147 reverses cognitive impairment in aged Alzheimer's disease mice” (Alzheimer's Research & Therapy, 2013) can be followed below.

“And” between values parts separate entries of the source, which are not always exact repeats. Equal entries are not always repeated.

The target in one data set is dopamine transporter (Homo sapiens, UniProt Q01959). Put plainly: dopamine transporter assay (MDS Pharma Services). Format: binding. The method, then:
All screening was done at 10 μM J147 by various contract research organizations (CROs), including MDS Pharma Services (King of Prussia, PA, USA), Ricerca, now Panlabs (Concord, OH, USA), Ambit (La Jolla, CA, USA), Caliper (Hopkinton, MA, USA) and NovaScreen Biosciences (Hanover, MD, USA) by standard protocols described in their catalogs.

Data set [1] in a line: body weights and food consumption of aged APPswe/PS1ΔE9 mice. Format: in vivo. The following applies: 20-month-old APPswe/PS1ΔE9 mice, 200 ppm (10 mg/kg/day) in food, three months, measured weekly. Here is the method:
(§1) The APPswe/PS1ΔE9 transgenic mice have been previously characterized. The line 85 mice carry two transgenes, the mouse/human chimeric APP/Swe, linked to Swedish FAD and human PS1ΔE9. At 20 months of age both male and female transgenic mice were fed a high fat diet (Harlan Tekland, Madison, WI, USA) with and without J147 (200 ppm, 10 mg/kg/day). Treatment continued for three months and was followed by behavior testing and sacrifice of mice for tissue harvesting. […] (Data not shown).

The next data set relates to C57BL/6J mice. Description: Y-maze, scopolamine induced memory impairment. The data set is classed as in vivo. The following applies: scopolamine 1 mg/kg i.p.; J147 200 ppm, donepezil 20 ppm in food for two weeks. Here is the method: A total of 60 male mice aged eight weeks were housed 4 per cage and were divided into five groups with 12 mice per group. Treatments were administered in the food (TestDiet® 5015, Richmond, IN, USA) for a period of two weeks before commencement of behavioral testing. […] Following two weeks of treatment, memory impairment was induced by intraperitoneal (i.p.) injection of scopolamine (1 mg/kg) 30 minutes prior to each of the following behavioral tests: Y-maze, probe trial of the water maze and contextual and cued fear conditioning. Mice were allowed to rest for two days between each behavior test. All mice received scopolamine except for one of the control groups, which received saline as a control. Mice were sacrificed 24 hours after the last behavioral test for tissue harvesting.
Spontaneous alternation, the tendency to alternate free choices in a Y-maze (three arms), is a model for studying short term working memory in mice. Mice were injected with 1 mg/kg of scopolamine or saline 30 minutes prior to testing. Then each mouse was placed in the center of the Y and arm entries were recorded by video camera and the order of entries were recorded for the first 15 entries. Spontaneous alternations are defined as consecutive triplets of different arm choices.

In the next data set the test system is HT22 cells. The following applies: 10 μM J147, one hour. Here is the method:
HT22 cells were plated in DMEM plus 10% FCS. The next day, the cells were treated with 10 μM J147 for 1 hr before RNA isolation.
RNA was isolated with the use of RNeasy Mini kit (Qiagen, #74104; Valencia, CA, USA) according to the manufacturer's instructions. Total RNA was quantified using the ND-1000 Nanodrop and assessed for quality using the ratios: A260/280 (range: 1.9 to 2.1) and A260/230 (range: 2.0 to 2.2, if <2.0, contamination), in addition to the Bioanalyzer (Agilent Technologies, Cedar Creek, TX, USA) if further quality assessment was required.
After RNA isolation for each sample, double stranded cDNA was synthesized from 500 ng total RNA and biotin-labeled using the GeneChip 3' IVT Express Kit (Affymetrix, Santa Clara, CA, USA, #901228-A) per the manufacturer's instructions and protocol. RNA was purified, quantified, fragmented randomly to an average size of 50 to 200 bases and hybridized to GeneChip® Mouse Genome 430 2.0 Arrays (Affymetrix,) consisting of over 45,000 probe sets representing more than 34,000 named mouse genes. The hybridization and processing of the GeneChips were conducted by Salk Institute's Functional Genomics Core Facility using the following systems from Affymetrix (Santa Clara, CA, USA): GeneChip® Hybridization Oven 640, GeneChip® Fluidics Station 450 to the wash and stain operation of Affymetrix GeneChip® arrays, and the GeneChip® Scanner 3000 7G.
Affymetrix Expression Console Software (version 1.0) was used to perform quality assessment of the microarray scan/experiments. Array data were normalized via scaling to adjust the average intensity of each array to be similar. GeneChips were analyzed by the GeneChip Operating Software (Affymetrix) with the default settings except that the target signal was set to 200 for GeneChip quality control. Raw data were analyzed through the gcRMA-algorithm using the Affymetrix package in R software for statistical computing and graphics. The median microarray intensity for all microarrays was normalized to 100, and probe sets with median intensities >100 were scored. Fold changes were calculated in Microsoft Excel Microsoft, Redmond, Washington, USA). Genes of interest and genes with the highest fold-changes were validated using Real-Time Quantitative PCR. The data discussed in this publication have been deposited in NCBI's Gene Expression Omnibus and are accessible through GEO Series accession number GSE45534 [26].

The test system of another data set is huAPP/PS1 mice. Put plainly: elevated plus maze in aged huAPP/PS1 mice. The data set is classed as in vivo. The following applies: 200 ppm in food for three months. The method, then: as §1
The elevated plus maze analyzes the anxiety response of mice. This test relies upon the tendency of mice to have a fear of heights and to navigate towards dark enclosed spaces and remain there. Our maze is made of gray plastic and consists of four arms (two open without walls and two enclosed by 15.25 cm high walls) 30 cm long and 5 cm wide in the shape of a plus sign. The elevated plus maze is placed close to the center of the room, and has similar levels of illumination on both open and closed arms. A video-tracking system (Noldus EthoVision) is used to automatically collect behavioral data. […] Mice were then tested in the maze for a five-minute period while the software tracked and recorded the behavior of the mice. The anxiety of mice was measured by comparing the time spent in the open arms to time spent in the closed arms. […]

Sequence of dopamine transporter (Q01959 whole entry): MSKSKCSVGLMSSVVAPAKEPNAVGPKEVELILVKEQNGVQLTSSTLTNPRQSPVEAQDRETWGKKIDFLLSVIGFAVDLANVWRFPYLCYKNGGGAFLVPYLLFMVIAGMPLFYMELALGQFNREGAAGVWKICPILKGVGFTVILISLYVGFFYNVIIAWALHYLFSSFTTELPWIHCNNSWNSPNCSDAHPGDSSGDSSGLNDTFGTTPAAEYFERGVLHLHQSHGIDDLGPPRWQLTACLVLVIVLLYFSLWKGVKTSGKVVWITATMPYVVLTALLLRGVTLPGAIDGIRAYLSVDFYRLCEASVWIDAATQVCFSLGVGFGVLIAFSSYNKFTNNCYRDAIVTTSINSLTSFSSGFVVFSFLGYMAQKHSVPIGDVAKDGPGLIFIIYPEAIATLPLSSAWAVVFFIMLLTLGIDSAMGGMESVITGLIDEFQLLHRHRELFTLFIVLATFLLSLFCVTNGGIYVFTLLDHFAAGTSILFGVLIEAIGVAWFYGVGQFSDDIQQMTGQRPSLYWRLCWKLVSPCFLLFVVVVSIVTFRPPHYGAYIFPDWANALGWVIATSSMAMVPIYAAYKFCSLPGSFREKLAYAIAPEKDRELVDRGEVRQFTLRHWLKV

With `COc1cccc(/C=N/N(C(=O)C(F)(F)F)c2ccc(C)cc2C)c1` [J147, (E)-N-(2,4-dimethylphenyl)-2,2,2-trifluoro-N'-(3methoxybenzyli-dene) acetohydrazide], the “inhibition, dopamine transporter” value against dopamine transporter (10 μM J147) is reported as “greater than 60%”. In addition, at dopamine transporter (dose response, re-assay after screening), the EC50 (in general, the midpoint of the concentration-response curve) stood at 649 nM. Besides, in data set [1], the “mouse body weights and food consumption” value is recorded as “no significant differences between the groups”. Also, the “short-term working memory (spontaneous alternations, Y maze)” value with C57BL/6J mice is recorded as “improve short-term working memory”. Also, in the data set with HT22 cells, the “Fold change: J147 (1 hr) vs Control, Egr1 mRNA” value was 2.5 fold; the “Fold change: J147 (1 hr) vs Control, Egr3 mRNA” value is 8 fold and 8.0 fold; the “Fold change: J147 (1 hr) vs Control, Ngf mRNA” value was found to be 2.8 fold; the “Fold change: J147 (1 hr) vs Control, No title (chr8:13161324 to 13161817)” value was 2.6 fold. Besides, the “Fold change: J147 (1 hr) vs Control, Spred2 mRNA” value with HT22 cells worked out at 2.7 fold. Moreover, in the data set on huAPP/PS1 mice, the “disinhibition phenotype (time in the open arm)” value is on record as “completely rescued”.
